Target: T1, Arginase-1 (Bos taurus, UniProt Q2KJ64)
T1 sequence (Q2KJ64 whole entry): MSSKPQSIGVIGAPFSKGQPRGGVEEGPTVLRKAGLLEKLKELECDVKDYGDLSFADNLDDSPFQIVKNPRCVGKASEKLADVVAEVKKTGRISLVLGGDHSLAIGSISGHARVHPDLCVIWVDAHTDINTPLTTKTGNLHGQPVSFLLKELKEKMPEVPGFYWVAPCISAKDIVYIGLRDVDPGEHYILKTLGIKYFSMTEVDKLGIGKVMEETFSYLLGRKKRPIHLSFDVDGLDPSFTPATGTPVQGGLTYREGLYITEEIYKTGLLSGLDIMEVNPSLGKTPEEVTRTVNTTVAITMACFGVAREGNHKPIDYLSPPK
Assay: Inhibition of bovine liver arginase 1 using L-arginine as substrate incubated for 60 mins by OPA-p colorimetric assay

| SMILES | IC50 [µM] |
| --- | --- |
| O=C1/C(=C/c2ccc(O)c(O)c2)Oc2c1ccc(O)c2O | 254 |
| N[C@@H](CSCCB(O)O)C(=O)O | 23 |
| Oc1ccc(Cl)cc1C1CC(c2ccco2)=NN1 (configuration not stated) | 720 |
| O=C1/C(=C/c2ccc(O)c(O)c2O)Oc2c1ccc(O)c2O | 532 |
| O=C1/C(=C/c2ccc(F)cc2)Oc2c1ccc(O)c2O | 507 |
| O=C1/C(=C/c2ccc(O)cc2)Oc2c1ccc(O)c2O | 1930 |
| O=C1/C(=C/c2cc(O)c(O)c(O)c2)Oc2c1ccc(O)c2O | 287 |
| O=C(/C=C/c1cc(O)c(O)c(O)c1)c1ccc(O)c(O)c1 | 764 |
| O=C1/C(=C/c2cccc(O)c2)Oc2c1ccc(O)c2O | 120 |
| O=C1/C(=C/c2c(F)c(F)c(F)c(F)c2F)Oc2c1ccc(O)c2O | 1090 |
| O=C1/C(=C/c2ccc(F)c(F)c2)Oc2c1ccc(O)c2O | 312 |
| O=C1C(=Cc2ccc(O)c(O)c2)C(=O)c2ccccc21 | 537 |
| O=C(/C=C/c1ccc(O)c(O)c1)c1c(O)cc(O)cc1O [3,4,2',4',6'-PENTAHYDROXYCHALCONE] | 98 |
| O=C(/C=C/c1ccc(O)c(O)c1)O[C@@H]1C[C@](O)(C(=O)O)C[C@@H](O)[C@H]1O [CHLOROGENIC ACID] | 271 |
| Oc1cc(O)cc(/C=C/c2ccc(O)c(O)c2)c1 [PICEATANNOL] | 71.6 |
| Oc1cccc(O)c1O [PYROGALLOL] | 375 |
| O=C1/C(=C/c2ccc(O)c(O)c2)Oc2cc(O)ccc21 [SULFURETIN] | 437 |

Second part, the compound after the results:

| IC50 [µM] | SMILES |
| --- | --- |
| 102 | O=C(/C=C/c1ccc(O)c(O)c1)c1cccc(O)c1 |
| 351 | O=C(/C=C/c1ccc(O)c(O)c1)c1ccccc1 |
| 136 | O=C(/C=C/c1ccc(O)c(O)c1)c1cc(O)cc(O)c1 |
| 91.1 | O=C(/C=C/c1ccc(O)c(O)c1)c1ccc(O)c(O)c1 |
| 354 | O=C(/C=C/c1ccc(O)c(O)c1)c1ccc(O)cc1 |
| 302 | O=C(/C=C/c1ccc(O)cc1)c1ccc(O)c(O)c1 |
| 384 | O=C(/C=C/c1ccccc1)c1ccc(O)c(O)c1 |
| 364 | O=C(/C=C/c1cc(O)cc(O)c1)c1ccc(O)c(O)c1 |
| 135 | O=C(/C=C/c1cccc(O)c1)c1ccc(O)c(O)c1 |
| 1550 | O=C(/C=C/c1ccc(O)c(O)c1)c1ccc(O)cc1O [BUTEIN] |

Reference: ChEMBL document CHEMBL5532687, “A colorimetric assay adapted to fragment screening revealing aurones and chalcones as new arginase inhibitors” (RSC Med Chem, 2024)
